According to US9861102B2, “Methods for disinfection” (Markesbery Blue Pearl LLC, priority 2016, dated 2018):

System: Bacillus subtilis bacteria
Assay: Closed-system control experiments of peracid reactant compounds, percent kill
Assay type: cell-based
Conditions: for Percent Kill: B. subtilis agar plates, electrostatic spray, 2-micron thickness, concentrations as in Example 2, charge as indicated
Description: The electrostatic spray device used was a Hurricane ES™ Portable Electrostatic Aerosol Applicator, modified to selectively impart either a positive, negative, or neutral charge when dispersing an aqueous composition containing a peracid reactant compound. In experiments where multiple aqueous compositions containing peracid reactant compounds were dispersed, the compositions were dispersed sequentially, and all aqueous compositions were dispersed with either a positive, negative, or neutral charge, as indicated below in Table 5. […] In all experiments, the percent by weight of distilled water was adjusted appropriately in response to the addition or deletion of a peracid reactant compound. […] Processing and handling of the agar plates containing the B. subtilis bacteria was conducted according to the procedure used in Example 3.

Q: Which “Percent Kill” value does the source give for OO [Exp 7, Hydrogen Peroxide] here?
A: Its value is 72%.

Q: Which “Percent Kill” value does the source give for CC(=O)O [Exp 8, Acetic Acid] here?
A: Its value is 6%.

Q: CCO [Exp 9, Ethanol] was tested. Which “Percent Kill” value did it give?
A: Its value is 0%.

Q: What about the “effect on bacterial growth” value (ethanol on its own) of the same compound?
A: Its value is “no effect”.
